# Non-standard residues stand in square brackets, D forms with d. Residues, ends and D or L forms follow the SMILES beside them. NMeY = CN[C@@H](Cc1ccc(O)cc1)C(=O)O; dNMeF = CN[C@H](Cc1ccccc1)C(=O)O; Sar = CNCC(=O)O
# Experiment: physchem
# Conditions: aqueous
structure (smiles),measurement,value
"CC[C@H](C)[C@@H]1NC(=O)[C@H](Cc2ccc(O)cc2)N(C)C(=O)[C@H](Cc2ccccc2)NC(=O)CN(C)C(=O)[C@@H]2CCCN2C(=O)[C@@H](Cc2ccccc2)N(C)C(=O)[C@H](CC(C)C)NC1=O [Compound 1, cordyheptapeptide A] (cyclo(F[NMeY]IL[dNMeF]P[Sar]))",solubility,3.9 µM
